Legend:
[1] = system: HD larvae (Elav^c155-GAL4; UAS-Htt-Q138/+); assay: In vivo rescue: viability of HD larvae after 5-day drug dosing in liquid culture; design: species or system Drosophila; settings: larvae reared in liquid culture, 5-day dosing, compared to DMSO-treated controls
Description: In vivo Rescue studies: For small molecule in vivo rescue studies, Elav^c155; UAS-Htt-Q138-mRFP^1, UAS-mCD8-GFP/+1st instar larvae were collected en-masse and dispensed into liquid yeast media (10 larvae/well) containing therapeutic agents at three different concentrations as described in the results (n=8 replicas/concentration). Cultures were reared at 21° C. and larval viability was assessed after 5 days and the mean number of living Htt138Q larvae (i.e. GFP^+, Htt138QmRFP^+, and mobile) was tabulated, and expressed as a percentage of total larvae/well. For genetic rescue studies with lkb1, two Htt138Q strains were utilized: a strong expressing line, UAS-Htt138QmRFP^1 which is pharate lethal when crossed to Elav^c155, and a weaker expressing line, UAS-Htt138QmRFP^2 which survives to adulthood and is viable for a number of weeks. Using the strong line, pharate lethality at 25° C. was calculated after lkb1 (lkb1^4B1-11 and lkb1^4A4-2 alleles) was introduced into an Elav^c155, UAS-Htt/+background. Lkb1^4B1-11 is a premature truncation allele (Q98>Stop), and lkb1^4A4-2 is an EMS null allele (589 b.p. deletion removing 150 b.p. of the 5′ UTR, the start codon and the beginning of the open reading frame). For Top1 in vivo analysis, Elav^c155, Top^112 recombinants were generated and crossed to UAS-Htt138QmRFP^1.
To further examine the RNAi/small molecule screen hits, we assayed in vivo efficacy by testing their ability to rescue lethality in our Drosophila HD model. […] Specific inhibitors of Lkb1 were not available for in vivo testing.

[2] = system: gap junction; settings: cited from earlier work
[3] = system: PC12 cells; settings: cited from earlier work

## CC1(C)[C@@H](O)CC[C@]2(C)[C@H]3C(=O)C=C4[C@@H]5C[C@@](C)(C(=O)O)CC[C@]5(C)CC[C@@]4(C)[C@]3(C)CC[C@@H]12 [18β-Glycyrrhetinic acid]
[1]
  Viability of Htt-Q138 expressing larvae / rescue of Htt-Q138 lethality: rescue HD toxicity in vivo
[1]; listed as 180-Glycyrrhetinic acid
  Viability of Htt-Q138 expressing larvae / rescue of Htt-Q138 lethality: almost as efficacious as Rapamycin
[2]
  Gap junction activity: block gap junction activity
[3]
  Neurotoxicity in PC12 cellular stress model: suppresses neurotoxicity

From patent publication US20130303562A1, “CHEMICAL AND RNAI SUPPRESSORS OF NEUROTOXICITY IN HUNTINGTON'S DISEASE” (priority 2010, published 2013)
